According to US8269009B2, “Methods and compositions for treating liquid tumors” (Elan Pharmaceuticals, Inc., priority 2007, dated 2012):

Assays:
[1] = Maximum tolerated dose of topotecan in the MOLT-4 model (Piedmont Research Center); conditions: SCID, mouse, in vivo; MOLT-4 cell line model
Procedure: The dose level of 12 mg/kg topotecan was determined as maximum tolerated dose in the MOLT-4 cell line by Piedmont Research Center. Since maximal biologic effect can occur at a dose much lower than the MTD, we had included ½ the maximum tolerated (½MTD=6 mg/kg) (see Marx, G M et al., Journal of Clin One 2002; 20(6): 1446-1448).

[2] = test system: neovascularization of the cornea; experiment: Mouse corneal micropocket angiogenesis assay (VEGF pellet); format: in vivo, C57BL/6 mice
Procedure: Fifty-five Charles River (Wilmington, N.C.) female C57BL/6 mice were available for the study. […] On Day 1 (Oct. 9, 2007) the Hydron pellets were implanted into corneal pocket cut in one eye of mice; pellets containing 200 ng/animal VEGF were implanted in Groups 2-6. Mice were anesthetized with 90 mg/kg pentobarbital, IP, immediately prior to implantation surgery; pellet implantation was performed according to Piedmont SOP which the test facility described as an adaptation of the method described by Kenyon et al (B M Kenyon, E E Voest, C C Chen, E Flynn, J Folkman, R J D'Amato, 1996, A model of angiogenesis in the mouse cornea, Investigative Opthalmology & Visual Science, Vol 37 No 8, 1625-1632). […]
Body weights were taken every day throughout the study. […] The vessel length of the longest blood vessel to have grown upward from the limbus was measured (VL) as was the circumference of vessel growth or clock hour (CH). The area of neovascularization was calculated using the formula: Area (mm^2)=πVL×CH×0.2. In addition to reporting the vessel length, clock hour, and calculated area of neovascularization, the percent neovascularization compared to the VEGF-treated negative control (Group 2) was reported. statistical significance by Kruskal-Wallis-Dunn with comparison to Group 2 and mean body weight nadir (the lowest group mean body weight, as a percent change from Day 1. […]

Compound	MTD [1] [mg/kg]	Percent neovascularization ([2]; 10 mg/kg IP, qd x 6 from Day 2) [%]	Changes in body weight vs untreated group ([2]; mouse, in vivo)
CC[C@@]1(O)C(=O)OCc2c1cc1n(c2=O)Cc2cc3c(CN(C)C)c(O)ccc3nc2-1 [topotecan]	12		
bevacizumab: bevacizumab (Avastin, Genentech), an anti-VEGF monoclonal antibody		0	no significant changes
